Literature values, collected in patent publication US8685448B2, “Pharmaceutical solid dosage form” (Laboratorios Del Dr. Esteve, S.A., priority 2009, dated 2014).
Structures can show the parent of a compound that is named as a salt.

Conditions: background statement

With `COc1ccc2nc([S@@+]([O-])Cc3ncc(C)c(OC)c3C)[nH]c2c1` [esomeprazol sodium salt, sodium salt of (−)-(S)-5-methoxy-2-[(4-methoxy-3,5-dimethylpyridin-2-yl)methylsulflnyl]-3H-benzoimidazole] as the molecule, how does the solubility in water read?
Its solubility in water is “extremely soluble in water”.
